Measured values from PubChem BioAssay AID624129 (Sanford-Burnham Center for Chemical Genomics, 2012).
Active and inactive are the calls of the source. How the calls were made is not given here.

Columns and labels:
Experiment in all cases: potency against CXCR6 with APJ panel – cell-based, beta-arrestin, DiscoveRx, uHTS hits, dose response (AID 624129)
[1] = molecular target: Apelin receptor (Homo sapiens) (UniProt P35414); conditions: CXCR6 beta-arrestin (DiscoveRx) antagonist cell assay, APJ
[2] = molecular target: Beta-galactosidase (Escherichia coli) (UniProt Q8VNN2); conditions: CXCR6 beta-arrestin (DiscoveRx) antagonist cell assay, b-galactosidase
Chain of Beta-galactosidase (Escherichia coli) (Q8VNN2 whole entry, looked up): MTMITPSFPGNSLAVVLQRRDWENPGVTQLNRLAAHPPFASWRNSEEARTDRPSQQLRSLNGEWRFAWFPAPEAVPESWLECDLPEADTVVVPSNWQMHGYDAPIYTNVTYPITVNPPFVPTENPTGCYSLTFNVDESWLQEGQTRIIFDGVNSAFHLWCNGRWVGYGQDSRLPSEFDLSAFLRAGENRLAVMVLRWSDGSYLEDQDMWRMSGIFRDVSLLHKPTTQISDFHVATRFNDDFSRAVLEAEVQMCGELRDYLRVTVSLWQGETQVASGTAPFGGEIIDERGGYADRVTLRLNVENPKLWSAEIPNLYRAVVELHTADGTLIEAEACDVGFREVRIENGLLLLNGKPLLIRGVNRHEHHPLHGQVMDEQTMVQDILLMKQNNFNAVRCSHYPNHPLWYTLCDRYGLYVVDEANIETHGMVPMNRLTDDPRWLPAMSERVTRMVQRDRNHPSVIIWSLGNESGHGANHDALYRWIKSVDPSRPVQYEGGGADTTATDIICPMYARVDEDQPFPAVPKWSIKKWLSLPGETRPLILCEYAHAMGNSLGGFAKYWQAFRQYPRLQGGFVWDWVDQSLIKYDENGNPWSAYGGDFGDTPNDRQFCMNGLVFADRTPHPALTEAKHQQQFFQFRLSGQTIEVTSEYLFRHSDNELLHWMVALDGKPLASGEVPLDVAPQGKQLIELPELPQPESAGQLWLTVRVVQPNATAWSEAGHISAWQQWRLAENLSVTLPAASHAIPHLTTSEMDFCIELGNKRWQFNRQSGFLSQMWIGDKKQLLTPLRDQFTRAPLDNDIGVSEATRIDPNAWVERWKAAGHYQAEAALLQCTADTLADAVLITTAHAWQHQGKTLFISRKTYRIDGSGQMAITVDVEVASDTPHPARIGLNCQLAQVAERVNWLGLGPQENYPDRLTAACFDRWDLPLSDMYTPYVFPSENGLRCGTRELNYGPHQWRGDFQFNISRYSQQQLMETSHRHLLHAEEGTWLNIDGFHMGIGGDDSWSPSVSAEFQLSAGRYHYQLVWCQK

[3] = molecular target: C-C chemokine receptor type 6 (Homo sapiens) (UniProt P51684); conditions: CXCR6 beta-arrestin (DiscoveRx) antagonist cell assay
[4] = molecular target: C-X-C chemokine receptor type 6 (Homo sapiens) (UniProt O00574); conditions: CXCR6 beta-arrestin (DiscoveRx) antagonist cell assay
Chain of C-X-C chemokine receptor type 6 (Homo sapiens) (O00574 whole entry, looked up): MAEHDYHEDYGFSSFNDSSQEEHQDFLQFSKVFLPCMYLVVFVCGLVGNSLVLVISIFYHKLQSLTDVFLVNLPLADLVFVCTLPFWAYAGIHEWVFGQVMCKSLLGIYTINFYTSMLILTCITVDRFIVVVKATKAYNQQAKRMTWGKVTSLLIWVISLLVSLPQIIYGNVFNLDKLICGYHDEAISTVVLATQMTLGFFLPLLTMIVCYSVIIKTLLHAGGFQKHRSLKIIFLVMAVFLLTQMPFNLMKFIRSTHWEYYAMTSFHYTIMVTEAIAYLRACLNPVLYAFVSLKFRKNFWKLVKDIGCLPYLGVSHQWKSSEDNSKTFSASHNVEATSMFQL

[5] = dose range 1, mean IC50 across replicates
[6] = CCR6, dose range 1, mean IC50 across replicates
[7] = CXCR6, dose range 1, mean IC50 across replicates
[8] = CXCR6, run 1, dose range 2, at 80 µM (top of the series)

IC50 ([1]; dose range 1)	IC50 [1, 5] [µM]	IC50 ([1]; run 2, dose range 1) [µM]	IC50 ([1]; run 3, dose range 1) [µM]	IC50 ([2]; dose range 1)	IC50 [2, 5] [µM]	IC50 ([3]; CCR6, dose range 1) [µM]	IC50 [3, 6] [µM]	IC50 ([3]; CCR6, run 2, dose range 1) [µM]	IC50 ([4]; CXCR6, dose range 1)	IC50 [4, 7] [µM]	inhibition [4, 8] [%]	IC50 ([4]; CXCR6, run 2, dose range 1) [µM]	IC50 ([4]; CXCR6, run 1, dose range 2) [µM]	IC50 ([4]; CXCR6, run 2, dose range 2) [µM]	inhibition ([4]; CXCR6, run 1, dose range 2, at 20 µM (top of the series)) [%]	Structure (SMILES)
	> 80	> 80	> 80	> 80 µM (inactive)	> 80		> 80	> 80	> 80 µM (inactive)	> 80	-36.2	> 80				COc1ccc(NC(=O)/C(Cl)=C(/Cl)S(=O)Cc2ccc(Cl)cc2)cn1 (stereo not drawn)
8.29 µM	6.22	4.43	5.96	> 80 µM (inactive)	> 80	4.87	4.62	4.38	4.86 µM	5.03		5.05	5.61	4.59		CCCC(=O)OCCNc1cc(Sc2nccn2C)c2nonc2c1[N+](=O)[O-]
	> 80	> 80	> 80	> 80 µM (inactive)	> 80	6.68	20.8	34.9	inactive	19		> 80	7.73	7.58		O=C(/C=C/c1cccc([N+](=O)[O-])c1)c1ccc([N+](=O)[O-])o1
61.2 µM	60.7	60.1	> 80	> 80 µM (inactive)	> 80		47.5	47.5	> 80 µM (inactive)	> 80	47.9	> 80				CS(=O)(=O)c1ncc(Cl)c(C(=O)Nc2ccc3ccccc3c2)n1
11 µM	9.89	7.31	11.3	> 80 µM (inactive)	> 80	6.18	6.81	7.45	7.8 µM	6.87		7.9	6.11	5.67		C=C1CC(COc2cc(=O)oc3ccccc23)(c2ccccc2)OC1=O (stereo not drawn)
6.97 µM	5.95	5.67	5.22	> 80 µM (inactive)	> 80	5.51	6.66	7.8	6.74 µM	5.51		6.13	4.23	4.93		CC(Oc1ccc(Br)cc1)C(=O)Nc1nc(-c2ccccn2)cs1 (stereo not drawn)
inactive	60	62.7	75.9	> 80 µM (inactive)	> 80	3.9	5.09	6.27	inactive	11.2		36.3	0.963	2.7		CC1(C)CC(=O)C(C=Nc2ccc(C(=O)c3ccccc3)cc2N=CC2=C(O)CC(C)(C)CC2=O)=C(O)C1

The remaining lines, values behind:

Structure (SMILES)	IC50 ([1]; dose range 1)	IC50 [1, 5] [µM]	IC50 ([1]; run 2, dose range 1) [µM]	IC50 ([1]; run 3, dose range 1) [µM]	IC50 ([2]; dose range 1)	IC50 [2, 5] [µM]	IC50 ([3]; CCR6, dose range 1) [µM]	IC50 [3, 6] [µM]	IC50 ([3]; CCR6, run 2, dose range 1) [µM]	IC50 ([4]; CXCR6, dose range 1)	IC50 [4, 7] [µM]	inhibition [4, 8] [%]	IC50 ([4]; CXCR6, run 2, dose range 1) [µM]	IC50 ([4]; CXCR6, run 1, dose range 2) [µM]	IC50 ([4]; CXCR6, run 2, dose range 2) [µM]	inhibition ([4]; CXCR6, run 1, dose range 2, at 20 µM (top of the series)) [%]
C=C(CN(C)C)C(=O)c1ccc(OC2OC(COC(C)=O)C(OC(C)=O)C(OC(C)=O)C2OC(C)=O)cc1 (stereo not drawn)	38.4 µM	38.9	37.8	40.5	> 80 µM (inactive)	> 80	24.5	23.2	21.9	inactive	22.3	135	20.9			
O=c1cc(CSc2ccc(Cl)cc2)nc(-c2ccccn2)[nH]1	3.53 µM	3.82	3.74	4.18	> 80 µM (inactive)	> 80	2.87	4.41	5.95	4.35 µM	3.68		3.7	3.45	3.2	
O=C(Nc1nccs1)c1sc2cc(Cl)ccc2c1Cl	48.2 µM	46.8	45.4	> 80	> 80 µM (inactive)	> 80	9.63	10.1	10.6	inactive	19		46.1	7.2	10.3	
CN(C)S(=O)(=O)c1cccc(NC(=O)CSc2cccc3cccnc23)c1	47.9 µM	48.1	47.7	48.7	> 80 µM (inactive)	> 80	37.3	34.1	30.8	inactive	30.8	123	27.2			
O=C1C=CC2(O[C@H](c3ccccc3)[C@@H](c3ccccc3)O2)[C@H](Sc2ccccc2O)C1	1.65 µM	3.05	5.03	2.46	> 80 µM (inactive)	> 80	2.26	3.07	3.87	8.69 µM	6.31	121	3.94			
COc1ccc(C(=O)/C=C/C(=O)N(CC(=O)NC2CCCCC2)Cc2cccs2)c(O)c1		> 80	> 80	> 80	> 80 µM (inactive)	> 80		> 80	> 80	> 80 µM (inactive)	> 80	-73	> 80			
COc1ccc(-c2csc(Cc3nc(O)cs3)n2)cc1	4.5 µM	4.96	5.92	4.47	> 80 µM (inactive)	> 80	2.8	3.45	4.1	4.12 µM	4.09		4.68	3.66	3.91	
Cc1ccc(S(=O)(=O)c2ccc([N+](=O)[O-])o2)cc1	9.88 µM	10.9	> 80	11.9	> 80 µM (inactive)	> 80		8.34	8.34	inactive	11.8		> 80			77.6
CS(=O)(=O)c1ccc(C(=O)OCc2nnc(-c3ccccc3)o2)cc1[N+](=O)[O-]	4.43 µM	3.86	3.23	3.93	> 80 µM (inactive)	> 80	7.32	8.49	9.67	3.8 µM	3.17		3.64	3.23	2.03	
O=[N+]([O-])c1c(Nc2cccc(O)c2)cc(Cl)c2nonc12	18 µM	19.1	17	22.2	> 80 µM (inactive)	> 80	12.2	13.3	14.3	inactive	13.8	113	11.3			
